Measurements from patent US5843990A, “Pyran-chromenone compounds, their synthesis and anti-HIV activity” (The University of Tennessee Research Corporation, priority 1996, dated 1998).
“Also recorded” adds a separate entry of the source. Like-named read-outs stand apart in the source and are kept apart here.

Tests used:
[1] = test system: T4 lymphocytes (CEM cell line), CEMSS; experiment: NCI protocol toxicity control: growth of drug-treated, uninfected CEM-SS cells; assay type: cell-based; conditions: Homo sapiens, Table 3, 8b-8e tested as racemic drug, read-out: IC50 (concentration for inhibition of 50% of cell growth)
Experimental: (§1) (1) The sample is dissolved in dimethyl sulfoxide, then diluted 1:100 in cell culture medium before preparing serial half-log10 dilutions. T4 lymphocytes (CEM cell line) are added, and after a brief interval, HIV-1 is added, resulting in a 1:200 dilution of the compound. Uninfected cells with the compound serve as a toxicity control, and infected and uninfected cells without the compound serve as basic controls.
(§2) (2) Cultures are incubated at 37° C. in a 5% carbon dioxide atmosphere for six days.
(§3) (3) The tetrazolium salt, XTT, is added to all wells, and cultures are incubated to allow formazan color development by viable cells.
(§4) (4) Individual wells are analyzed spectrophotometrically to quantitate fornazan production, and in addition are viewed microscopically for detection of viable cells and confirmation of protective activity.
(§5) (5) Drug-treated, virus-infected cells are compared with drug-treated, noninfected cells and with other appropriate controls (untreated infected and untreated noninfected cells, drug-containing wells without cells, etc.) on the same plate.
(§6) The results are given for IC50 and EC50. IC50 is a measure of "concentration for inhibition of 50% of cell growth" and is measured from drug-treated, uninfected cells, thus giving a measure of drug toxicity toward T4 lymphocytes. The EC50 is "effective inhibition for 50% of cell growth" and is measured on drug-treated, HIV-infected cells. A ratio of these values, IC50 /EC50 gives the therapeutic index, a measure of the overall effectiveness of the drug in halting virus-infestedcell growth. Typically for anti-HIV drugs to be classed as "active" in the NCI protocol, the IC50 value should be at least micromolar (10^-6 M) and the EC50 value should be sub-micromolar (10^-7 M or lower); however, these values are only ideal, and may vary a log-order in magnitude or more. […] Large, positive TI values, measured in the 10^2 -10^3 range indicate a potent, relatively nontoxic drug and represent the near-ideal drug candidate.
(§7) ^a Testing was conducted according to NCI's protocol [Weislow, O. W.
(§8) et al. J. Natl. Cancer Inst. 1989, 81, 577-586]. The virus strain was
(§9) HIV1, and the cell line was CEMSS.

HIV-1 = experiment: NCI (Weislow) anti-HIV screen, XTT cell protection, HIV-1 infected CEM-SS; assay type: cell-based; conditions: for anti-HIV activity / relative potency in words: NCI anti-HIV screen; for Classification (Active / Moderately Active / Inactive): Weislow assay, criteria of NCI protocol; for Classification (Active / Moderately Active / Inactive) / TI (therapeutic index, IC50/EC50): CEM-SS, HIV-1; for EC50: Human immunodeficiency virus 1, 6 days, HIV-1 infected CEM-SS cells, 8c, 8d tested as racemic drug, read-out: EC50 (effective inhibition for 50% of cell growth); for EC50 / TI (therapeutic index, IC50/EC50): Table 3; for TI (therapeutic index, IC50/EC50): 8640 min
Experimental: The compounds of this invention were also all assayed for activity in inhibiting the growth of HIV, human immunodeficiency virus, the virus known to cause AIDS. The protocol^25 was that of the National Cancer Institute (NCI) of the National Institutes of Health. The primary screen makes use of the HIV-1 strain of the virus. By this protocol, the procedure is as follows:
as §1, with “controls. […]” for “controls.”
as §3, §4, §5
(6) Data are reviewed in comparison with other tests done at the same time, and a determination about activity is made.
as §6, §7, §8, §9

[2] = test system: human immunodeficiency virus (HIV); conditions: four diastereomers of the calanolide series, literature, cited from earlier work
[3] = test system: DPS, a diphenyl sulfone-resistant strain bearing a different mutation at AA codon 181; experiment: NCI protocol, DPS diphenyl sulfone-resistant strain, MT4 cells; assay type: cell-based, HIV-1; conditions: for EC50: Human immunodeficiency virus 1, MT4; for TI (IC50/EC50) / Classification: Table 4, DPS, MT4 cells; for Classification: NCI criteria
Experimental: as §1, §2, §3, §4, §5, §6
(§10) Among these are the following strains of the virus: (1) HIV-1 (6R), an AZT-resistant strain; (2) N119, a nevirapine-resistant strain bearing a mutation at AA codon 181; (2) DPS, a diphenyl sulfone-resistant strain bearing a different mutation at AA codon 181.
as §7, §8
(§11) HIV1, and the cell line was MT4.

[4] = test system: N119, a nevirapine-resistant strain bearing a mutation at AA codon 181; experiment: NCI protocol, N119 nevirapine-resistant strain, MT4 cells; assay type: cell-based, HIV-1; conditions: for EC50: Human immunodeficiency virus 1, MT4; for Classification: NCI criteria
Experimental: as §1, §2, §3, §4, §5, §6, §10, §7, §8, §11

MT4 cells = experiment: NCI protocol toxicity control: growth of drug-treated, uninfected MT4 cells; assay type: cell-based; conditions: Homo sapiens
Experimental: as §1, §2, §3, §4, §5, §6, §7, §8, §11

[5] = test system: strains of HIV resistant to other drugs that inhibit HIV reverse transcriptase; experiment: Activity against HIV strains resistant to other HIV reverse transcriptase inhibitors (summary in words); assay type: cell-based; conditions: HIV-1 (6R), N119, DPS
Text: as §10
From the data in the Table, both compounds (-)-7a and 8a were classified as "active" for inhibition of each resistant HIV strain. From the large TI values, their potencies against these resistant strains of the virus are novel and remarkable. Other compounds of the invention are expected also to have this property.
as §7, §8, §11

[6] = test system: HIV-1 (6R), an AZT-resistant strain; experiment: NCI protocol, HIV-1 (6R) AZT-resistant strain, MT4 cells; assay type: cell-based; conditions: for EC50: Human immunodeficiency virus 1, MT4; for TI (IC50/EC50) / Classification: Table 4, HIV-1 (6R), MT4 cells; for Classification: NCI criteria
Experimental: as §1, §2, §3, §4, §5, §6, §10, §7, §8, §11

[7] = MT4, Table 4, line of strain DPS
[8] = MT4, Table 4, line of strain HIV-1 (6R)
[9] = MT4, Table 4, line of strain N119

For `CCCc1cc(=O)oc2c3c(cc(OC(C)C)c12)O[C@@H](C)[C@H](C)[C@H]3O` [(-)-8a, (-)-(8S, 9R, 10R)-10-Hydroxy-5-isopropyloxy-8,9-dimethyl-4-propyl-9,10-dihydro-8H-pyrano[2,3-f]-chromen-2-one], the IC50 [1] was 7.34 µM, the “anti-HIV activity / relative potency in words” value (HIV-1) was “consistently showed impressive results in the anti-HIV screen” and the “Classification (Active / Moderately Active / Inactive)” value (HIV-1) was “Inactive”.
For `CCCc1cc(=O)oc2c3c(c4c(c12)OC(C)(C)C=C4)OC(C)C(C)C3O` (single isomer, unassigned; (-)) [(-)-calanolide B], the “anti-HIV potency of known calanolides, in words” value (from here on “anti-HIV potency”) [2] is listed as “the more potent of the four diastereomers; also recorded: more potent diastereomers in this class”.
With `CCCc1cc(=O)oc2c3c(cc(OC(C)C)c12)O[C@H](C)[C@@H](C)[C@@H]3O` [Compound 8a, (+)-(8R,9S,10S)-10-Hydroxy-5-isopropyloxy-8,9-dimethyl-4-propyl-9,10-dihydro-8H-pyrano[2,3-f]-chromen-2-one] the IC50 [1] was 21 µM, the EC50 [3] was 0.0649 µM and the “TI (IC50/EC50)” value [3] was > 308. The Classification [3] was “Active”, the EC50 (HIV-1) was 0.161 µM and the “anti-HIV activity / relative potency in words” value (HIV-1) was “consistently showed impressive results in the anti-HIV screen; also recorded: remarkable”. The “anti-HIV activity / relative potency in words” value (HIV-1; listed as (+)-8a) was “remarkable among the congeners of the invention”, the “TI (therapeutic index, IC50/EC50)” value (HIV-1) was 130 and the “Classification (Active / Moderately Active / Inactive)” value (HIV-1) was “Active”. For the same compound, the EC50 [4] was 0.00635 µM, the Classification ([4]; Table 4, N119, MT4 cells) was “Active” and the IC50 (MT4 cells; [7]) was > 20 µM. For the same compound, the IC50 (MT4 cells; [8]) was > 20 µM, the IC50 (MT4 cells; [9]) was > 20 µM and the “inhibitory activity against resistant HIV strains, in words” value (shortened to “inhibitory activity”) [5] was “potent inhibitory activities; also recorded: active”. The “inhibitory activity” value ([5]; listed as (+)-8a) was “potent activity”, the EC50 [6] was 0.365 µM and the “TI (IC50/EC50)” value [6] was 54.8. The Classification [6] was “Active”.
For `CCCc1cc(=O)oc2c3c(cc(OC(C)CC)c12)O[C@H](C)[C@@H](C)[C@@H]3O` (relative stereo) [Compound 8c], the IC50 [1] was 37.4 µM, the EC50 (HIV-1) was 3.66 µM and the “anti-HIV activity / relative potency in words” value (HIV-1) was “less potent activities”. The “TI (therapeutic index, IC50/EC50)” value (HIV-1) was 10.2 and the “Classification (Active / Moderately Active / Inactive)” value (HIV-1) was “Mod. Active; also recorded: moderately active”.
In the case of `CCCc1cc(=O)oc2c3c(c4c(c12)OC(C)(C)C=C4)O[C@H](C)[C@@H](C)[C@@H]3O` [(+)-calanolide A], the “anti-HIV potency” value [2] is listed as “the more potent of the four diastereomers” and the “anti-HIV potency” value ([2]; listed as (+)-Calanolide A) is listed as “more potent diastereomers in this class”.
In the case of `C#CCOc1cc2c(c3oc(=O)cc(CCC)c13)[C@@H](O)[C@H](C)[C@@H](C)O2` (relative stereo) [Compound 8e], the IC50 [1] is reported as 8.34 µM, the “anti-HIV activity / relative potency in words” value (HIV-1) is reported as “less potent activities” and the “Classification (Active / Moderately Active / Inactive)” value (HIV-1) is reported as “Inactive”.
For `CCCc1cc(=O)oc2c3c(cc(OC(C)C)c12)O[C@@H](C)[C@H](C)[C@@H]3O` [(-)-7a, (-)-(8S,9R,10S)-10-Hydroxy-5-isopropyloxy-8,9-dimethyl-4-propyl-9,10-di-hydro-8H-pyrano[2,3-f]-chromen-2-one], the IC50 [1] was 8.11 µM, the EC50 [3] was 0.099 µM and the “TI (IC50/EC50)” value [3] was 121. For the same compound, the Classification [3] was “Active”, the EC50 (HIV-1) was 0.963 µM and the “anti-HIV activity / relative potency in words” value (HIV-1) was “highly potent; also recorded: remarkable”. For the same compound, the “anti-HIV activity / relative potency in words” value (HIV-1; listed as (-)-7) was “consistently showed impressive results in the anti-HIV screen”, the “TI (therapeutic index, IC50/EC50)” value (HIV-1) was 84.2 and the “Classification (Active / Moderately Active / Inactive)” value (HIV-1) was “Active”. The EC50 [4] was 0.00701 µM, the “TI (IC50/EC50)” value ([4]; Table 4, N119, MT4 cells) was 1540 and the Classification ([4]; Table 4, N119, MT4 cells) was “Active”. The IC50 (MT4 cells; [7]) was 12 µM, the IC50 (MT4 cells; [8]) was 10.8 µM and the IC50 (MT4 cells; [9]) was 11.1 µM. The “inhibitory activity” value [5] was “potent inhibitory activities; also recorded: active; also recorded: potent activity”, the EC50 [6] was 0.639 µM and the “TI (IC50/EC50)” value [6] was 16.9. For the same compound, the Classification [6] was “Active”.
With `CCCc1cc(=O)oc2c3c(cc(OC(C)C)c12)O[C@H](C)[C@@H](C)[C@H]3O` [Compound 7a, (+)-(8R,9S,10R)-10-Hydroxy-5-isopropyloxy-8,9-dimethyl-4-propyl-9,10-di-hydro-8H-pyrano[2,3-f]-chromen-2-one] the IC50 [1] was 8.4 µM, the “anti-HIV activity / relative potency in words” value (HIV-1) was “consistently showed impressive results in the anti-HIV screen” and the “Classification (Active / Moderately Active / Inactive)” value (HIV-1) was “Inactive”.
In the case of `CCCc1cc(=O)oc2c3c(cc(OC)c12)O[C@H](C)[C@@H](C)[C@@H]3O` (relative stereo) [Compound 8b], the IC50 [1] is reported as > 200 µM, the “anti-HIV activity / relative potency in words” value (HIV-1) is reported as “less potent activities” and the “Classification (Active / Moderately Active / Inactive)” value (HIV-1) is reported as “Inactive”.
